Reference: patent US20230365541A1, “INHIBITOR OF ENHANCER OF ZESTE HOMOLOGUE 2, AND USE THEREOF” (HAISCO PHARMACEUTICALS PTE. LTD., priority 2020, published 2023)

Assays:
SU-DHL-6 cells = test: SU-DHL-6 cell proliferation test; type: cell-based, human; settings: incubated for 14 days
Method: SU-DHL-6 cells are human B-cell lymphoma cell lines purchased from ATCC and cultured under the following conditions: RPMI-1640+10% FBS+1% double antibody in a 37° C., 5% CO2 incubator. The cells were plated in a 12-well plate, with a cell concentration of 1×10^5 cells/mL. After the cells were plated, the compounds at different concentrations were added and cultured in a 37° C., 5% CO2 incubator. The cells were counted every 3-4 days (Countstar automated cell counter), centrifuged to remove the supernatant, re-diluted to 1×10^5 cells/mL and plated, and then the compounds at different concentrations were further added. After the mixture was incubated for 14 days and the cells were counted, the test was terminated, and the IC50 values were calculated by using the Origen9.2 software.

EZH2 = EZH2 (Homo sapiens (Human), UniProt Q15910); test: Test method for EZH2 enzyme activity; type: biochemical; settings: H3K27(21-44) and [3H]-SAM
Sequence of EZH2 (Q15910 other isoform, or with tags, fused parts or gaps isoform Q15910-2): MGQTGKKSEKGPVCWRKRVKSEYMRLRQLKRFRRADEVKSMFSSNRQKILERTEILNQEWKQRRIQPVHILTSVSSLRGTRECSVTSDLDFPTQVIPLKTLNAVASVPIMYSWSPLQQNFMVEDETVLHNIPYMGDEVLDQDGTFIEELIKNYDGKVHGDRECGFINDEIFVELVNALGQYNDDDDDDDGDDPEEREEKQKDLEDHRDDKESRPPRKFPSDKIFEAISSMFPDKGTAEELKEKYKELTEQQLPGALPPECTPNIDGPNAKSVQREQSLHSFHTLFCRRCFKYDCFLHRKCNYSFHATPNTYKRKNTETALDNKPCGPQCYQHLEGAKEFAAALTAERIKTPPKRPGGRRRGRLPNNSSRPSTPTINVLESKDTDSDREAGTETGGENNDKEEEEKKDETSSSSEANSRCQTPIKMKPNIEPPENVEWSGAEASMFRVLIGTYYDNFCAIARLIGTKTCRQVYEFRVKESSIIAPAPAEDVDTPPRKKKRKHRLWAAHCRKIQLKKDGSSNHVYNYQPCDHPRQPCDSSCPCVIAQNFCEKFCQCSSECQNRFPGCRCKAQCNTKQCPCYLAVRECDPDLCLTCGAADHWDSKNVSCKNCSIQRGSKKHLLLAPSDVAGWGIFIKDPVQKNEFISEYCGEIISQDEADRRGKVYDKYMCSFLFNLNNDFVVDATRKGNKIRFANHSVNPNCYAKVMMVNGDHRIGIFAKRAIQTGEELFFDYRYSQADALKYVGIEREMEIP
Sequence of EZH2 (O75530 2-441 partner): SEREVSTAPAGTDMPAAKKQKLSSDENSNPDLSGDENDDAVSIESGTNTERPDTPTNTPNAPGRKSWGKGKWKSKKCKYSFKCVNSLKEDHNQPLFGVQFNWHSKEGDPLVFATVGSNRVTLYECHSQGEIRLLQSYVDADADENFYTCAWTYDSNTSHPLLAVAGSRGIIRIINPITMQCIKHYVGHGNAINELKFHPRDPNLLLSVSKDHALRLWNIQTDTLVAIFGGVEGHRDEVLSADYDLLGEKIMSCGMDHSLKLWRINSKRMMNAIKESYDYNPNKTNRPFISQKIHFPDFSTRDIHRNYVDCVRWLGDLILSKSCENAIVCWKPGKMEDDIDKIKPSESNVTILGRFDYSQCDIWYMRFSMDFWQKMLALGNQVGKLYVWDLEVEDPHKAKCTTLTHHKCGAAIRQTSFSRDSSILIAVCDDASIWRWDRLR
Sequence of EZH2 (Q15022 2-739 partner): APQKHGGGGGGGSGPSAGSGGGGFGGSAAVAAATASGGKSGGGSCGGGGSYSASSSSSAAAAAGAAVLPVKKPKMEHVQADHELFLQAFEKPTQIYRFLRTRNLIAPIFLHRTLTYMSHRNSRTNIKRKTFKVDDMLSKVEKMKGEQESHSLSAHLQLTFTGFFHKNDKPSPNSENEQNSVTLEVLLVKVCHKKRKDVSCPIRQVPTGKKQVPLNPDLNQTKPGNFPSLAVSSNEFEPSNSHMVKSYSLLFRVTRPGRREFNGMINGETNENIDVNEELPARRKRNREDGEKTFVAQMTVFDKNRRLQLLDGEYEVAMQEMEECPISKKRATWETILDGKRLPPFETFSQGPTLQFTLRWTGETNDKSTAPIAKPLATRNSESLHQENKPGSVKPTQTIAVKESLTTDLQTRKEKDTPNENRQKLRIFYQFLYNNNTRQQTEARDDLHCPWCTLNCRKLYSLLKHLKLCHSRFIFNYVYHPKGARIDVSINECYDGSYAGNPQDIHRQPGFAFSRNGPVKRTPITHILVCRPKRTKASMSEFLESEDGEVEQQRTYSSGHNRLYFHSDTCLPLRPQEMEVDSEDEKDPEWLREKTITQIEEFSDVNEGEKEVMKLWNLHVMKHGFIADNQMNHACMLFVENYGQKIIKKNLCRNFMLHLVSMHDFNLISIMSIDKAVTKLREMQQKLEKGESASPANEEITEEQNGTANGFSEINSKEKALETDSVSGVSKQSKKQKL
Sequence of EZH2 (Q09028 2-425 partner): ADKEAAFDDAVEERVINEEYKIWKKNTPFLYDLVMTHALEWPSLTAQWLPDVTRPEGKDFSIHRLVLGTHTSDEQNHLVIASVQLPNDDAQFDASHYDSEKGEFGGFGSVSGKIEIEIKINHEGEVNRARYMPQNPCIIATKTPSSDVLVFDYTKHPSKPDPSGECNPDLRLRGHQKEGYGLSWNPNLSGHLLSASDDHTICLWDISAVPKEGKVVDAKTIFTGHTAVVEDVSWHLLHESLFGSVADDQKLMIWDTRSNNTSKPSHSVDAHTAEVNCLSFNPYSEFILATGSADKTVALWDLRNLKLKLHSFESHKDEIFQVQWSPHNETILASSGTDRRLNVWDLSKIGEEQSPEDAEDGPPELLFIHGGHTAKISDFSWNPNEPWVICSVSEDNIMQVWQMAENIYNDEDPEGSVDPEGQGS
Sequence of EZH2 (Q6ZN18 whole entry partner): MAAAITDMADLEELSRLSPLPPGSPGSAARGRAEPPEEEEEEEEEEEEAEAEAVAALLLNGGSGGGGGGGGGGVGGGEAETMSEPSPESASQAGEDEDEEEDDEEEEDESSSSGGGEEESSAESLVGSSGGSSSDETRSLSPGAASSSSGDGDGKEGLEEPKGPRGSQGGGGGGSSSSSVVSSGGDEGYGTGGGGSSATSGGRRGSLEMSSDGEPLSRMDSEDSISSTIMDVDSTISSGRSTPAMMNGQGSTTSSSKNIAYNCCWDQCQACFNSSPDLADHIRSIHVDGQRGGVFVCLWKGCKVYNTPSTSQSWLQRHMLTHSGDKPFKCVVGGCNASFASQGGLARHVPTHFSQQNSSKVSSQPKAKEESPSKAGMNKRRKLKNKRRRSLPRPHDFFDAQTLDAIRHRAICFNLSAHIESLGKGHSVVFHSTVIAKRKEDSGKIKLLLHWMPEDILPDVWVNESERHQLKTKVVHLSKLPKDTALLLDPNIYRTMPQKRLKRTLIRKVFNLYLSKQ
Outline: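 EZH2 (3 nM final) preincubated 15 min with compound in Tris-HCl pH 9.0 buffer, then H3K27(21-44) peptide and [3H]-SAM added (mixture at 200 nM and 100 nM) for 60 min at room temperature. Reaction quenched with cold SAM; flashplate scintillation read, inhibition normalized to controls and IC50 fitted.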

Structure (SMILES)	IC50 (SU-DHL-6 cells) [nM]	IC50 (EZH2) [nM]	IC50 (SU-DHL-6 cells; Homo sapiens, SU-DHL-6, 336 h) [nM]	IC50 (SU-DHL-6 cells; Homo sapiens, 336 h) [nM]
CSc1cc(C)[nH]c(=O)c1CNC(=O)c1cc(Cl)c2c(c1C)OC(C)([C@H]1CC[C@@H](N3CC(N4CCCC4)C3)CC1)O2 (single isomer, unassigned) [Compound 43, isomer 1, 7-chloro-2,4-dimethyl-N-((6-methyl-4-(methylthio)-2-oxo-1,2-dihydropyridin-3-yl)methyl)-2-(4-(3-(pyrrolidin-1-yl)azetidin-1-yl)cyclohexyl)benzo[d][1,3]dioxole-5-carboxamide]		0.49		59.3
CSc1cc(C)[nH]c(=O)c1CNC(=O)c1cc(Cl)c2c(c1C)OC(C)([C@H]1CC[C@@H](N3CC[Si](C)(C)CC3)CC1)O2 (single isomer, unassigned) [Compound 49, isomer 2, 7-chloro-2-(4-(4,4-dimethyl-1,4-azasilinan-1-yl)cyclohexyl)-2,4-dimethyl-N-((6-methyl-4-(methylthio)-2-oxo-1,2-dihydropyridin-3-yl)methyl)benzo[d][1,3]dioxole-5-carboxamide]		0.32	38.9	
CNS(=O)(=O)N1CCC(C2(C)Oc3c(Cl)cc(C(=O)NCc4c(SC)cc(C)[nH]c4=O)c(C)c3O2)CC1 (centres unmarked) [Compound 26, 7-chloro-2,4-dimethyl-N-((6-methyl-4-(methylthio)-2-oxo-1,2-dihydropyridin-3-yl)methyl)-2-(1-(N-methylsulfamoyl)piperidin-4-yl)benzo[d][1,3]dioxole-5-carboxamide]		0.52	63.2	
COC(=O)N1CCC(C2(C)Oc3c(Cl)cc(C(=O)NCc4c(SC)cc(C)[nH]c4=O)c(C)c3O2)CC1 (centres unmarked) [Compound 29, methyl-4-(7-chloro-2,4-dimethyl-5-(((6-methyl-4-(methylthio)-2-oxo-1,2-dihydropyridin-3-yl)methyl)carbamoyl)benzo[d][1,3]dioxol-2-yl)piperidine-1-carboxylate]		0.44	77.9	
CSc1cc(C)[nH]c(=O)c1CNC(=O)c1cc(Cl)c2c(c1C)OC(C)(C1CCN(CC3(C#N)CC3)CC1)O2 (centres unmarked) [Compound 30, 7-chloro-2-(1-((1-cyanocyclopropyl)methyl)piperidin-4-yl)-2,4-dimethyl-N-((6-methyl-4-(methylthio)-2-oxo-1,2-dihydropyridin-3-yl)methyl)benzo[d][1,3]dioxole-5-carboxamide]		0.66	22.6	
CSc1cc(C)[nH]c(=O)c1CNC(=O)c1cc(Cl)c2c(c1C)OC(C)(C1CCN(CC3CC3(F)F)CC1)O2 (centres unmarked) [Compound 31, 7-chloro-2-(1-((2,2-difluorocyclopropyl)methyl)piperidin-4-yl)-2,4-dimethyl-N-((6-methyl-4-(methylthio)-2-oxo-1,2-dihydropyridin-3-yl)methyl)benzo[d][1,3]dioxole-5-carboxamide]		0.52	68	

Continued, in another order:

IC50 (SU-DHL-6 cells) [nM]	IC50 (EZH2) [nM]	IC50 (SU-DHL-6 cells; Homo sapiens, SU-DHL-6, 336 h) [nM]	Structure (SMILES)	IC50 (SU-DHL-6 cells; Homo sapiens, 336 h) [nM]
22	0.44		CSc1cc(C)[nH]c(=O)c1CNC(=O)c1cc(Cl)c2c(c1C)OC(C)([C@H]1CC[C@H](N[C@H]3C[C@@H](F)C3)CC1)O2 (single isomer, unassigned) [Compound 41, isomer 2, 7-chloro-2-(4-((cis-3-fluorocyclobutyl)amino)cyclohexyl)-2,4-dimethyl-N-((6-methyl-4-(methylthio)-2-oxo-1,2-dihydropyridin-3-yl)methyl)benzo[d][1,3]dioxole-5-carboxamide]	
	0.57	10	[2H]C([2H])(NC(=O)c1cc(Cl)c2c(c1C)OC(C)(C1CCC(NC3COC3)CC1)O2)c1c(SC)cc(C)[nH]c1=O (single isomer, unassigned) [Compound 59, isomer 1, 7-chloro-2,4-dimethyl-N-((6-methyl-4-(methylthio)-2-oxo-1,2-dihydropyridin-3-yl)methyl-d2)-2-(4-(oxetan-3-ylamino)cyclohexyl)benzo[d][1,3]dioxole-5-carboxamide]	
58.6	0.18		[2H]C([2H])(NC(=O)c1cc(Cl)c2c(c1C)OC(C)([C@H]1CC[C@@H](N3CC4COCC4C3)CC1)O2)c1c(SC)cc(C)[nH]c1=O (single isomer, unassigned) [Compound 60, isomer 1, 7-chloro-2,4-dimethyl-N-((6-methyl-4-(methylthio)-2-oxo-1,2-dihydropyridin-3-yl)methyl-d2)-2-(4-(tetrahydro-1H-furo[3,4-c]pyrrol-5(3H)-yl)cyclohexyl)benzo[d][1,3]dioxole-5-carboxamide]	
7.12	0.34		[2H]C([2H])(NC(=O)c1cc(Cl)c2c(c1C)OC(C)([C@H]1CC[C@@H](N3CC4COCC4C3)CC1)O2)c1c(SC)cc(C)[nH]c1=O (single isomer, unassigned) [Compound 60, isomer 2, 7-chloro-2,4-dimethyl-N-((6-methyl-4-(methylthio)-2-oxo-1,2-dihydropyridin-3-yl)methyl-d2)-2-(4-(tetrahydro-1H-furo[3,4-c]pyrrol-5(3H)-yl)cyclohexyl)benzo[d][1,3]dioxole-5-carboxamide]	
26.3	0.34		CSc1cc(C)[nH]c(=O)c1CNC(=O)c1cc(Cl)c2c(c1C)OC(C)([C@H]1CC[C@H](C(=O)N3CC(F)(F)C3)CC1)O2 (single isomer, unassigned; isomer 1) [Compound 47, isomer 1, 7-chloro-2-(4-(3,3-difluoroazetidine-1-carbonyl)cyclohexyl)-2,4-dimethyl-N-(di-deuterated(6-methyl-4-(methylthio)-2-oxo-1,2-dihydropyridin-3-yl)di-deuterated-methyl)benzo[d][1,3]dioxole-5-carboxamide]	
	0.44	32.1	CSc1cc(C)[nH]c(=O)c1CNC(=O)c1cc(Cl)c2c(c1C)OC(C)(C1CCN(CC3CCC3)CC1)O2 (centres unmarked) [Compound 37, 7-chloro-2-(1-(cyclobutylmethyl)piperidin-4-yl)-2,4-dimethyl-N-((6-methyl-4-(methylthio)-2-oxo-1,2-dihydropyridin-3-yl)methyl)benzo[d][1,3]dioxole-5-carboxamide]	
	0.7	14.1	CSc1cc(C)[nH]c(=O)c1CNC(=O)c1cc(Cl)c2c(c1C)OC(C)(C1CCN(CC3COC3)CC1)O2 (centres unmarked) [Compound 38, 7-chloro-2,4-dimethyl-N-((6-methyl-4-(methylthio)-2-oxo-1,2-dihydropyridin-3-yl)methyl)-2-(1-(oxetan-3-ylmethyl)piperidin-4-yl)benzo[d][1,3]dioxole-5-carboxamide]	
